Laboratory results as given in patent US20180200257A1, “METHODS FOR THE TREATMENT OF INFLAMMATORY DISORDERS” (Galapagos NV, priority 2015, published 2018).

System: subjects with moderately to severely active RA who have an inadequate response to methotrexate (MTX)
Assay: Study 1 (add-on to MTX) - Subject VAS mean changes (ACR patient assessment)
Assay type: in vivo, human
Procedure: The scale is 100 mm, the decrease in mm is shown. […] (dotted line), 100 mg q.d. (dashed line) or 200 mg q.d. (dark solid line). […] The results shown in the figures are calculated using Last-Observation-Carried-Forward (LOCF), which handles missing data by assigning the value recorded at the patient's last visit to all subsequent missed visits.
Double-blind, placebo-controlled add on study in subjects with moderately to severely active RA who have an inadequate response to methotrexate (MTX) (oral or parenteral).
595 subjects randomized to one of 6 dose regimens of Compound 1 (dosed as [Compound 1:HCl:3H2O]) (3 dose levels administered either once or twice daily) or placebo on top of each subject's stable dose of MTX.
Compound 1 (dosed as [Compound 1:HCl:3H2O]) is dosed for twelve weeks once daily (q.d.) (50 mg, 100 mg or 200 mg) or twice daily (b.i.d.) (25 mg, 50 mg or 100 mg); or placebo.
At Week 12, the subjects on placebo who have not achieved 20% improvement in swollen joint count (SJC66) and tender joint count (TJC68) are re-randomized automatically to receive Compound 1 (dosed as a [Compound 1:HCl:3H2O]) either at 100 mg q.d. or 50 mg b.i.d. doses in a blinded fashion; subjects on 50 mg q.d. who have not achieved 20% improvement in SJC66 and TJC68 will be assigned to 100 mg q.d. and subjects on 25 mg b.i.d. that have not achieved a 20% improvement in SJC66 and TJC68 will be assigned to 50 mg b.i.d. Subjects who switch treatment at week 12 are handled as if they discontinued at week 12 for the purpose of statistical analysis, whereas subjects in the other groups will maintain their randomized treatment until Week 24.
Firstly, the patient is asked to make a vertical mark on a 100 mm Visual Analog Scale (VAS) corresponding to their general health or global disease activity on a touch screen to measure the VAS value, which is used in the formula below.
The American College of Rheumatology (ACR) composite score, which evaluates clinical improvement relative to an initial assessment, is a commonly accepted efficacy end point for clinical trials in patients with rheumatoid arthritis. The ACR score correspond to a percentage improvement in pre-set parameters, and therefore measures the evolution of the disease in a patient. For example, ACR20 denotes at least 20% improvement in tender and swollen joint counts and in three of the following end points: global assessment by the patient, global assessment by the doctor, C reactive protein (CRP), patient's pain Visual Analogue Scale and Health Assessment Questionnaire Score. The number of swollen joints, ESR and CRP correlate with radiographic progression of joint damage, whereas tender joint counts, as well as global assessments by doctors and patients, and patients' reports of pain, are sensitive to change in clinical outcomes. Physical function, as assessed by the Health Assessment Questionnaire Score, is a potent predictor of the risk of disability in rheumatoid arthritis (Felson and American College of Rheumatology Committee to Reevaluate Improvement Criteria, 2007; Felson et al., 1993).

O=C(Nc1nc2cccc(-c3ccc(CN4CCS(=O)(=O)CC4)cc3)n2n1)C1CC1 [Compound 1, cyclopropanecarboxylic acid {5-[4-(1,1-dioxo-thiomorpholin-4-ylmethyl)-phenyl]-[1,2,4]triazolo[1,5-a]pyridin-2-yl}-amide]
Subject VAS mean changes (ACR patient assessment) (50 mg q.d., week 0, LOCF, 24 weeks results): 0.0
Subject VAS mean changes (ACR patient assessment) (50 mg q.d., week 2, LOCF, 24 weeks results): −15.5
Subject VAS mean changes (ACR patient assessment) (50 mg q.d., week 4, LOCF, 24 weeks results): −20.9
Subject VAS mean changes (ACR patient assessment) (50 mg q.d., week 8, LOCF, 24 weeks results): −26.4
Subject VAS mean changes (ACR patient assessment) (50 mg q.d., week 12, LOCF, 24 weeks results): −25.2
Subject VAS mean changes (ACR patient assessment) (50 mg q.d., week 16, LOCF, 24 weeks results): −27.7
Subject VAS mean changes (ACR patient assessment) (50 mg q.d., week 20, LOCF, 24 weeks results): −28.1
Subject VAS mean changes (ACR patient assessment) (50 mg q.d., week 24, LOCF, 24 weeks results): −29.4
Subject VAS mean changes (ACR patient assessment) (50 mg q.d., week 0, LOCF, 12 weeks results): 0.0
Subject VAS mean changes (ACR patient assessment) (50 mg q.d., week 1, LOCF, 12 weeks results): −11.2
Subject VAS mean changes (ACR patient assessment) (50 mg q.d., week 2, LOCF, 12 weeks results): −15.5
Subject VAS mean changes (ACR patient assessment) (50 mg q.d., week 4, LOCF, 12 weeks results): −20.9
Subject VAS mean changes (ACR patient assessment) (50 mg q.d., week 8, LOCF, 12 weeks results): −26.4
Subject VAS mean changes (ACR patient assessment) (50 mg q.d., week 12, LOCF, 12 weeks results): −25.2
Subject VAS mean changes (ACR patient assessment) (100 mg q.d., week 0, LOCF, 24 weeks results): 0.0
Subject VAS mean changes (ACR patient assessment) (100 mg q.d., week 2, LOCF, 24 weeks results): −20.9
Subject VAS mean changes (ACR patient assessment) (100 mg q.d., week 4, LOCF, 24 weeks results): −24.4
Subject VAS mean changes (ACR patient assessment) (100 mg q.d., week 8, LOCF, 24 weeks results): −29.8
Subject VAS mean changes (ACR patient assessment) (100 mg q.d., week 12, LOCF, 24 weeks results): −29.1
Subject VAS mean changes (ACR patient assessment) (100 mg q.d., week 16, LOCF, 24 weeks results): −31.7
Subject VAS mean changes (ACR patient assessment) (100 mg q.d., week 20, LOCF, 24 weeks results): −35.1
Subject VAS mean changes (ACR patient assessment) (100 mg q.d., week 24, LOCF, 24 weeks results): −34.4
Subject VAS mean changes (ACR patient assessment) (100 mg q.d., week 0, LOCF, 12 weeks results): 0.0
Subject VAS mean changes (ACR patient assessment) (100 mg q.d., week 1, LOCF, 12 weeks results): −13.2
Subject VAS mean changes (ACR patient assessment) (100 mg q.d., week 2, LOCF, 12 weeks results): −20.8
Subject VAS mean changes (ACR patient assessment) (100 mg q.d., week 4, LOCF, 12 weeks results): −24.4
Subject VAS mean changes (ACR patient assessment) (100 mg q.d., week 8, LOCF, 12 weeks results): −29.8
Subject VAS mean changes (ACR patient assessment) (100 mg q.d., week 12, LOCF, 12 weeks results): −29.1
Subject VAS mean changes (ACR patient assessment) (200 mg q.d., week 0, LOCF, 24 weeks results): 0.0
Subject VAS mean changes (ACR patient assessment) (200 mg q.d., week 2, LOCF, 24 weeks results): −21.8
Subject VAS mean changes (ACR patient assessment) (200 mg q.d., week 4, LOCF, 24 weeks results): −24.9
Subject VAS mean changes (ACR patient assessment) (200 mg q.d., week 8, LOCF, 24 weeks results): −29.6
Subject VAS mean changes (ACR patient assessment) (200 mg q.d., week 12, LOCF, 24 weeks results): −34.2
Subject VAS mean changes (ACR patient assessment) (200 mg q.d., week 16, LOCF, 24 weeks results): −32.9
Subject VAS mean changes (ACR patient assessment) (200 mg q.d., week 20, LOCF, 24 weeks results): −33.0
Subject VAS mean changes (ACR patient assessment) (200 mg q.d., week 24, LOCF, 24 weeks results): −34.9
Subject VAS mean changes (ACR patient assessment) (200 mg q.d., week 0, LOCF, 12 weeks results): 0.0
Subject VAS mean changes (ACR patient assessment) (200 mg q.d., week 1, LOCF, 12 weeks results): −16.7
Subject VAS mean changes (ACR patient assessment) (200 mg q.d., week 2, LOCF, 12 weeks results): −21.8
Subject VAS mean changes (ACR patient assessment) (200 mg q.d., week 4, LOCF, 12 weeks results): −25.2
Subject VAS mean changes (ACR patient assessment) (200 mg q.d., week 8, LOCF, 12 weeks results): −29.6
Subject VAS mean changes (ACR patient assessment) (200 mg q.d., week 12, LOCF, 12 weeks results): −34.0
Subject VAS mean changes (ACR patient assessment) (2 × 25 mg b.i.d., week 0, LOCF, 12 weeks results): 0.0
Subject VAS mean changes (ACR patient assessment) (2 × 25 mg b.i.d., week 0, LOCF, 24 weeks results): 0.0
Subject VAS mean changes (ACR patient assessment) (2 × 25 mg b.i.d., week 1, LOCF, 12 weeks results): −8.2
Subject VAS mean changes (ACR patient assessment) (2 × 25 mg b.i.d., week 2, LOCF, 12 weeks results): −11.7
Subject VAS mean changes (ACR patient assessment) (2 × 25 mg b.i.d., week 2, LOCF, 24 weeks results): −11.7
Subject VAS mean changes (ACR patient assessment) (2 × 25 mg b.i.d., week 4, LOCF, 12 weeks results): −16.0
Subject VAS mean changes (ACR patient assessment) (2 × 25 mg b.i.d., week 4, LOCF, 24 weeks results): −16.0
Subject VAS mean changes (ACR patient assessment) (2 × 25 mg b.i.d., week 8, LOCF, 12 weeks results): −22.2
Subject VAS mean changes (ACR patient assessment) (2 × 25 mg b.i.d., week 8, LOCF, 24 weeks results): −22.2
Subject VAS mean changes (ACR patient assessment) (2 × 25 mg b.i.d., week 12, LOCF, 12 weeks results): −25.2
Subject VAS mean changes (ACR patient assessment) (2 × 25 mg b.i.d., week 12, LOCF, 24 weeks results): −25.2
Subject VAS mean changes (ACR patient assessment) (2 × 25 mg b.i.d., week 16, LOCF, 24 weeks results): −25.5
Subject VAS mean changes (ACR patient assessment) (2 × 25 mg b.i.d., week 20, LOCF, 24 weeks results): −25.6
Subject VAS mean changes (ACR patient assessment) (2 × 25 mg b.i.d., week 24, LOCF, 24 weeks results): −27.3
Subject VAS mean changes (ACR patient assessment) (2 × 50 mg b.i.d., week 0, LOCF, 12 weeks results): 0.0
Subject VAS mean changes (ACR patient assessment) (2 × 50 mg b.i.d., week 1, LOCF, 12 weeks results): −8.8
Subject VAS mean changes (ACR patient assessment) (2 × 50 mg b.i.d., week 2, LOCF, 12 weeks results): −13.6
Subject VAS mean changes (ACR patient assessment) (2 × 50 mg b.i.d., week 2, LOCF, 24 weeks results): −13.8
Subject VAS mean changes (ACR patient assessment) (2 × 50 mg b.i.d., week 4, LOCF, 12 weeks results): −16.9
Subject VAS mean changes (ACR patient assessment) (2 × 50 mg b.i.d., week 4, LOCF, 24 weeks results): −16.9
Subject VAS mean changes (ACR patient assessment) (2 × 50 mg b.i.d., week 8, LOCF, 12 weeks results): −21.0
Subject VAS mean changes (ACR patient assessment) (2 × 50 mg b.i.d., week 8, LOCF, 24 weeks results): −21.0
Subject VAS mean changes (ACR patient assessment) (2 × 50 mg b.i.d., week 12, LOCF, 12 weeks results): −27.0
Subject VAS mean changes (ACR patient assessment) (2 × 50 mg b.i.d., week 12, LOCF, 24 weeks results): −27.0
Subject VAS mean changes (ACR patient assessment) (2 × 50 mg b.i.d., week 16, LOCF, 24 weeks results): −26.3
Subject VAS mean changes (ACR patient assessment) (2 × 50 mg b.i.d., week 20, LOCF, 24 weeks results): −29.7
Subject VAS mean changes (ACR patient assessment) (2 × 50 mg b.i.d., week 24, LOCF, 24 weeks results): −28.1
Subject VAS mean changes (ACR patient assessment) (2 × 100 mg b.i.d., week 0, LOCF, 12 weeks results): 0.0
Subject VAS mean changes (ACR patient assessment) (2 × 100 mg b.i.d., week 1, LOCF, 12 weeks results): −20.0
Subject VAS mean changes (ACR patient assessment) (2 × 100 mg b.i.d., week 2, LOCF, 12 weeks results): −25.5
Subject VAS mean changes (ACR patient assessment) (2 × 100 mg b.i.d., week 2, LOCF, 24 weeks results): −25.5
Subject VAS mean changes (ACR patient assessment) (2 × 100 mg b.i.d., week 4, LOCF, 12 weeks results): −28.6
Subject VAS mean changes (ACR patient assessment) (2 × 100 mg b.i.d., week 4, LOCF, 24 weeks results): −28.2
Subject VAS mean changes (ACR patient assessment) (2 × 100 mg b.i.d., week 8, LOCF, 12 weeks results): −32.8
Subject VAS mean changes (ACR patient assessment) (2 × 100 mg b.i.d., week 8, LOCF, 24 weeks results): −33.0
Subject VAS mean changes (ACR patient assessment) (2 × 100 mg b.i.d., week 12, LOCF, 12 weeks results): −35.6
Subject VAS mean changes (ACR patient assessment) (2 × 100 mg b.i.d., week 12, LOCF, 24 weeks results): −35.6
Subject VAS mean changes (ACR patient assessment) (2 × 100 mg b.i.d., week 16, LOCF, 24 weeks results): −37.9
Subject VAS mean changes (ACR patient assessment) (2 × 100 mg b.i.d., week 20, LOCF, 24 weeks results): −39.1
Subject VAS mean changes (ACR patient assessment) (2 × 100 mg b.i.d., week 24, LOCF, 24 weeks results): −39.1
